We go through one compound from patent US20230279379A1, “METHODS AND MICROFLUIDIC DEVICE FOR PRODUCING EXTRACELLULAR VESICLES” (THE BOARD OF TRUSTEES OF THE UNIVERSITY OF ILLINOIS, priority 2022, published 2023).

Structures are written as SMILES.

One experiment deals with Primary human MSCs. Nature of the experiment: EV secretion per cell from MSCs on hydrogel substrates, nanoparticle tracking analysis. The format is cell-based. The conditions noted are these: 5 μM CK869, ~4 hour adhesion, EV collection after 24 hours.
Experiment [1] concerns CD63-K2S^+ MVBs in D1 mouse MSCs. The experiment is described as follows: Intracellular CD63-K2S+ MVB transport by TIRF microscopy. The format is cell-based. Conditions: Arp2/3 inhibition by CK869. An excerpt: Lentiviral-Mediated Expression of CD63 Fused with Fluorescent Proteins. Katushka2S (far-red fluorescent protein) was fused with CD63 in a lentiviral expression vector (CD63-K2S vector) and expressed in D1 MSCs according to known methods. The sequence for pHLuorin2 (pH-sensitive green fluorescent protein) was synthesized by GenScript and exchanged with the Katushka2S in the same vector using restriction enzyme cloning. The resulting CD63-pHLuorin2 lentiviral vector was transduced in D1 MSCs in a similar method as the CD63-K2S vector. Cells were selected by treatment with 5 μg/mL puromycin over 3 days and confirmed to express fluorescent signal versus non-transduced cells.
Total Internal Reflection Fluorescence (TIRF) Imaging of Cells on Substrates. To covalently bond crosslinked PEG-DA hydrogel to a thin glass surface, acrylate groups were attached to glass coverslips by silanization. […]
CD63-Katushka2S Data Analysis. […] Intracellular bodies were determined using Gaussian smoothing and local background intensity thresholding (with automatically determined thresholds) to detect surfaces followed by tracking their position (x, y) over time (t). […] Multivescular body (MVB) area was computed for each time t and reported as the mean area across total track time T. Tracks were then analyzed via a custom MATLAB (R2017b, MathWorks) program. Track MSD was calculated as […]

Turning to `COc1ccc(N2C(=O)CSC2c2cccc(Br)c2)c(OC)c1` (stereo not shown) [CK869], in the experiment on Primary human MSCs (soft hydrogel), the “EV secretion on the soft hydrogel” value was “to a lesser but significant extent”. The “EV secretion on the stiff hydrogel” value in the experiment with Primary human MSCs (stiff hydrogel) is reported as “increased EV secretion on the stiff hydrogel”. In addition, the “transport exponent α” value in experiment [1] is reported as approximately 0.5. In addition, the “MVB transport (tracks, <MSD> vs t, D0.4s)” value in experiment [1] (soft and stiff substrate) was “significantly enhanced transport on either substrate”.
